Test results from US5792765A, “Substituted oxazolidinones” (Bayer Aktiengesellschaft, priority 1996, dated 1998).
≈ marks a conversion by molar mass, not a printed value. Read-outs that look alike come from different tables or passages of the source.

Experiments:
Format in all cases: cell-based
Psdm. Bonn = experiment: MIC by serial dilution on Iso-Sensitest Agar
Experimental: (§1) The minimum inhibitory concentrations (MIC) were determined by serial dilution methods on Iso-Sensitest Agar (Oxoid). For each test substance, a number of agar plates were prepared which, with an in each case doubled dilution, contained decreasing concentrations of the active compound. The agar plates were inoculated with the multipoint inoculator (Denley). For inoculation, overnight cultures of the caustive organisms were used which had previously been diluted such that each inoculation point contained about 10^4 colony-forming particles. The inoculated agar plates were incubated at 37° C., and the microorganism growth was read off after about 20 hours. The MIC value (μg/ml) indicates the lowest active compound concentration at which no growth could be detected using the naked eye.

Staph. 9TV = experiment: MIC by serial dilution on Iso-Sensitest Agar; settings: 37° C., about 20 hours
Experimental: as §1

Klebs. 57 USA = experiment: MIC by serial dilution on Iso-Sensitest Agar
Experimental: as §1

Staph. 133 = experiment: MIC by serial dilution on Iso-Sensitest Agar; settings: 37° C., about 20 hours
Experimental: as §1

Staph. 48N = experiment: MIC by serial dilution on Iso-Sensitest Agar; settings: 37° C., about 20 hours
Experimental: as §1

E. coli Neumann = experiment: MIC by serial dilution on Iso-Sensitest Agar; settings: Escherichia coli
Experimental: as §1

Staph. 25701 = experiment: MIC by serial dilution on Iso-Sensitest Agar; settings: 37° C., about 20 hours
Experimental: as §1

[1] = test system: Mycoplasma pneumoniae strain PI 1428; experiment: MIC determination with Mycoplasma pneumoniae, serial microdilution; settings: PI1428, PPLO medium, anaerobic, 37° C., Alamar Blue
Experimental: MIC determination with Mycoplasma pneumoniae
Mycoplasma pneumoniae strain PI 1428 was cultured under anaerobic conditions in PPLO medium, to which 1% glucose, 2.5% yeast extract, 20% horse serum (donor horse serum) and 0.002% Phenol Red were added. MIC determinations were carried out following the serial microdilution method in liquid medium described by ter Laak and coworkers (E. A. ter Laak, A. Pijpers, J. H. Noordergraaf, E. Schoevers, J. H. M. Verheijden: Comparison of Methods for in vitro Testing of Susceptibility of Porcine Mycoplasma Species to Antimicrobial Agents; Antimicrobial Agents and Chemotherapy, Vol. 35, 228-233 (1991)). At the time of the start of the colour change of the medium of the preparation-free control from red to yellow, 10% by volume of Alamar Blue was added. The incubation at 37° C. was continued for about 10 hours and the MIC defined as the value at which the medium having the smallest preparation concentration remained unchanged blue.

[2] = test system: Mycobacterium smegmatis DSM 43061; experiment: MIC by broth microdilution, rapidly growing mycobacteria; settings: Mycolicibacterium smegmatis, DSM43061; strain DSM 43061; inoculum 2.20E + 04 /ml; 37° C., 2-4 days
Experimental: (§2) For rapidly growing mycobacteria the MIC determination was carried out following the broth microdilution method described by Swenson [cf. J. M. Swenson, C. Thomberry, U. A. Silcox, Rapidly growing mycobacteria. Testing of susceptibility to 34 antimicrobial agents by broth microdilution. Antimicrobial Agents and Chemotherapy Vol. 22, 186-192 (1982)]. A deviation from this was the brain-heart extract medium treated with 0.1% by volume of Tween 80.
(§3) The mycobacterial strains used were obtained from the DSM (German Collection of Microorganisms, Brunswick). They were incubated at 37° C. in a humid chamber.
(§4) The MIC values were read off after 2-4 days when the preparation-free controls had become turbid due to growth.

[3] = test system: Mycobacterium smegmatis DSM 43078; experiment: as above; settings: Mycolicibacterium smegmatis, DSM43078; strain DSM 43078; inoculum 4.20E + 04 /ml; 37° C., 2-4 days
Experimental: as §2, §3, §4

[4] = Psdm. Bonn, 37° C., about 20 hours, read-out: MIC
[5] = Klebs. 57 USA, 37° C., about 20 hours, read-out: MIC
[6] = E. coli Neumann, 37° C., about 20 hours, read-out: MIC

| Structure (SMILES) | MIC (Staph. 9TV) | MIC (Staph. 133) | MIC (Staph. 48N) | MIC (Staph. 25701) | MIC [1] | MIC [2] | MIC (Psdm. Bonn; [4]) | MIC (Klebs. 57 USA; [5]) | MIC (E. coli Neumann; [6]) | MIC [3] | MIC (Psdm. Bonn; 20 h) | MIC (Klebs. 57 USA; 20 h) | MIC (E. coli Neumann; 20 h) |
| --- | --- | --- | --- | --- | --- | --- | --- | --- | --- | --- | --- | --- | --- |
| CCC(=S)NC[C@H]1CN(c2ccc3ccsc3c2)C(=O)O1 [Example 11] | 0.25 mg/L (≈ 0.78 µM) | 0.5 mg/L (≈ 1.56 µM) | 0.5 mg/L (≈ 1.56 µM) | 0.25 mg/L (≈ 0.78 µM) |  |  |  |  |  |  | > 64 mg/L | > 64 mg/L | > 64 mg/L |
| CNC(=S)NC[C@H]1CN(c2ccc(-c3ccncc3)s2)C(=O)O1 [Example 12] | 0.5 mg/L (≈ 1.43 µM) |  | 1 mg/L (≈ 2.87 µM) | 1 mg/L (≈ 2.87 µM) | 2 mg/L (≈ 5.74 µM) | 8 mg/L | > 64 mg/L | > 64 mg/L | > 64 mg/L |  |  |  |  |
| CNC(=S)NC[C@H]1CN(c2ccc(-c3cccnc3)s2)C(=O)O1 [Example 14] | 0.5 mg/L (≈ 1.43 µM) | 1 mg/L (≈ 2.87 µM) | 1 mg/L (≈ 2.87 µM) | 1 mg/L (≈ 2.87 µM) | 8 mg/L (≈ 23 µM) | 8 mg/L | > 64 mg/L | > 64 mg/L | > 64 mg/L | 4 mg/L |  |  |  |
| CC(=S)NC[C@H]1CN(c2cc3ccc(Cl)cc3s2)C(=O)O1 [Example 43] | 0.5 mg/L (≈ 1.47 µM) | 0.5 mg/L (≈ 1.47 µM) | 0.5 mg/L (≈ 1.47 µM) | 0.5 mg/L (≈ 1.47 µM) |  |  | > 64 mg/L | > 64 mg/L | > 64 mg/L |  |  |  |  |
| NNC(=O)c1ccncc1 [Isoniazide, reference compound] |  |  |  |  |  | 4 mg/L |  |  |  | 2 mg/L |  |  |  |

The next lines start with results.

| MIC (Staph. 9TV) | MIC (Staph. 133) | MIC (Staph. 48N) | MIC (Staph. 25701) | MIC [1] | MIC [2] | MIC (Psdm. Bonn; [4]) | MIC (Klebs. 57 USA; [5]) | MIC (E. coli Neumann; [6]) | MIC [3] | Structure (SMILES) | MIC (Psdm. Bonn; 20 h) | MIC (Klebs. 57 USA; 20 h) | MIC (E. coli Neumann; 20 h) |
| --- | --- | --- | --- | --- | --- | --- | --- | --- | --- | --- | --- | --- | --- |
| ≤ 0.125 mg/L | 0.25 mg/L (≈ 0.75 µM) |  | 0.25 mg/L (≈ 0.75 µM) | 2 mg/L (≈ 6 µM) | 2 mg/L | > 64 mg/L | > 64 mg/L | > 64 mg/L | 1 mg/L | CC(=S)NC[C@H]1CN(c2ccc(-c3ccncc3)s2)C(=O)O1 [Example 13] |  |  |  |
| ≤ 0.125 mg/L | 0.25 mg/L (≈ 0.75 µM) | 0.5 mg/L (≈ 1.5 µM) | 0.25 mg/L (≈ 0.75 µM) |  | 1 mg/L | > 64 mg/L | > 64 mg/L | > 64 mg/L | 0.5 mg/L | CC(=S)NC[C@H]1CN(c2ccc(-c3cccnc3)s2)C(=O)O1 [Example 15] |  |  |  |
| ≤ 0.125 mg/L | 0.25 mg/L (≈ 0.709 µM) | 0.25 mg/L (≈ 0.709 µM) | 0.25 mg/L (≈ 0.709 µM) |  | 0.25 mg/L | > 64 mg/L | > 64 mg/L | 64 mg/L (≈ 182 µM) | 0.25 mg/L | CNC(=S)NC[C@H]1CN(c2ccc3c(c2)sc(=O)n3C)C(=O)O1 [Example 20] |  |  |  |
| 0.25 mg/L (≈ 0.678 µM) | 0.25 mg/L (≈ 0.678 µM) | 0.5 mg/L (≈ 1.36 µM) | 0.5 mg/L (≈ 1.36 µM) | 4 mg/L (≈ 10.9 µM) |  | > 64 mg/L | > 64 mg/L | > 64 mg/L |  | CNC(=S)NC[C@H]1CN(c2ccc3nc(SC)sc3c2)C(=O)O1 [Example 23] |  |  |  |
| ≤ 0.125 mg/L | < 0.125 mg/L | 0.25 mg/L (≈ 0.707 µM) | 0.25 mg/L (≈ 0.707 µM) |  |  | > 64 mg/L | > 64 mg/L | > 64 mg/L |  | CSc1nc2ccc(N3C[C@H](CNC(C)=S)OC3=O)cc2s1 [Example 26] |  |  |  |
| ≤ 0.125 mg/L | < 0.125 mg/L | > 0.125 mg/L | > 0.125 mg/L |  |  | > 64 mg/L | 64 mg/L (≈ 190 µM) | 64 mg/L (≈ 190 µM) |  | CC(=S)NC[C@H]1CN(c2ccc3c(c2)sc(=O)n3C)C(=O)O1 [Example 42] |  |  |  |
